Test results: patent publication US20200163984A1, “USE OF ISOVALERYL SPIRAMYCIN I, II AND/OR III IN MANUFACTURING MEDICAMENT FOR TREATING AND/OR PREVENTING TUMOR, AND MEDICAMENT” (SHENYANG FUYANG PHARMACEUTICAL TECHNOLOGY CO., LTD., priority 2017, published 2020)

Assays:
[1] = test system: transplanted tumor of HT-29 cells; experiment: HT-29 transplanted tumor in nude mice; conditions: for Inhibition Rate (%) / Tumor Weight: HT-29 nude mice; for Tumor Volume (mm3) (d30): d 30
Experimental: (§1) Then cell concentration was adjusted to 1×10^7/ml with matrigel, then each nude mouse was inoculated subcutaneously with 0.2 ml of cells at its right armpit and recorded as the first day of inoculation. When the tumor grows to be greater than or equal to 100 mm^3, the mice were randomly divided into 11 groups with 6 mice in each group: isovaleryl spiramycin I groups with doses of 25, 50 and 100 mg/kg, isovaleryl spiramycin II groups with doses of 25, 50 and 100 mg/kg, and isovaleryl spiramycin III groups with doses of 25, 50 and 100 mg/kg. Each group was continuously administered intragastrically for 30 days with a dose of 20 ml/kg. The mice were sacrificed the next day after drug withdrawal and the indicators were tested. The long diameter and short diameter of the tumor, and the body weight of each mouse were recorded every 3 days from drug administration to nude mouse sacrifice.
(§2) The body weight of the nude mice and the long diameter (a) and short diameter (b) of the transplanted tumor were measured every 3 days, and the tumor volume (v), relative tumor volume (RTV) and relative tumor proliferation rate (T/C) are calculated respectively according to the following formulas, wherein V=a×b^2/2; RTV=V/V0 (V0 is the tumor volume before administration, V is the tumor volume before sacrifice), and T/C (%)=treatment group RTV/model control group RTV×100%.
(§3) Each mouse was weighed and sacrificed. After the tumor was completely stripped off from the body of the mouse, the non-tumor tissues such as blood stains and fat were removed to weigh the tumor and calculate the tumor growth inhibition rate. The average tumor weight of each group of mice is used as an indicator of efficacy. Tumor growth inhibition rate (%)=(1−the average tumor weight of the treatment group/the average tumor weight of the model group)×100%.

[2] = test system: transplanted tumor of human bladder cancer cell T-24; experiment: T-24 transplanted tumor in nude mice; conditions: for Tumor Volume (mm3) (d30): d 30
Experimental: as §1, §2, §3

[3] = test system: NK cell activity of spleen cells against K562 cells; experiment: Natural killer (NK) cell activity of Lewis lung cancer tumor-bearing mice; assay type: in vivo, C57BL/6 mouse
Experimental: In the Lewis lung cancer model, the mice inoculated with the tumor were randomly divided into groups with 10 mice in each group the next day of inoculation. The groups included: a model control group, a positive drug cyclophosphamide control group (CTX, 30 mg/kg), isovaleryl spiramycin I groups with doses of 13, 26 and 52 mg/kg; isovaleryl spiramycin II groups with doses of 13, 26 and 52 mg/kg; isovaleryl spiramycin III groups with doses of 13, 26 and 52 mg/kg. Each group was continuously administered intragastrically for 15 days with a dose of 20 ml/kg.
The serum-free RPMI 1640 medium was placed in a dish, and then the dish was placed on ice. The spleen was aseptically taken and gently ground with a sterile glass slide to prepare a single cell suspension. The single cell suspension was filtered with a double-layer sterile gauze, washed twice with serum-free RPMI1640 medium, and centrifuged at 1,500 rpm for 5 min to remove the obtained supernatant. 2 mL of red blood cell lysate was added to the treated suspension, the mixture was allowed to stand for 2 min, and then 8 mL of RPMI 1640 medium was added, centrifuging was performed at 1,500 rpm for 5 min to remove the obtained supernatant, and then washing was performed twice with the RPMI 1640 medium. […] A single cell suspension was prepared by using a RPMI 1640 medium containing 10% fetal bovine serum.
The spleen cell suspension was taken, and the cell density was adjusted to 1×10^7/mL (effector cells). A suspension of K562 cells was prepared with a cell density of 1×10^5/mL (target cells). Each mouse was set with: A. effector cells:target cell well (quantity ratio 20:1) to which […] of spleen cell suspension and 100 μL of K562 cell suspension were added; B. an effector cell control well to which 100 μL of spleen cell suspension and 100 μL of RPMI 1640 medium were added; and C. a target cell control well to which 100 μL of K562 cell suspension and 100 μL of RPMI 1640 medium were added. The above cells were added to a 96-well plate. After the 96-well plate was transferred to a saturated humidity condition with a volume fraction of 5% CO2 at 37° C. for incubation for 22 h, 10 μL of MTT solution (5 g/L) was added to each well, and incubation was continued to be performed for 4 hours under the same conditions, then the culture was terminated. 100 μl of a triple solution (SDS 10 g, 10M HCl 0.1 mL, isobutanol 5 mL, diluted with distilled water to 100 mL) was added, and the plate was shaken for 10 min to fully dissolve the crystals, and the Optical Density (OD) of each well at 490 nm was measured, and the NK cell activity was calculated. NK cell activity (%)=[TO−(S−E)]/TO×100%, wherein TO is the Optical Density of the target cell control well, S is the Optical Density of the effector cell control well, and E is the Optical Density of the effector cell.

[4] = HT-29, high dose (100 mg/kg in method) i.g. 30 days
[5] = HT-29, low dose (25 mg/kg in method) i.g. 30 days
[6] = HT-29, medium dose (50 mg/kg in method) i.g. 30 days
[7] = T-24, high dose (100 mg/kg in method) i.g. 30 days
[8] = T-24, low dose (25 mg/kg in method) i.g. 30 days
[9] = T-24, medium dose (50 mg/kg in method) i.g. 30 days

- mouse weight compared with the model group ([1]; mouse, in vivo): no significant changes
- mouse weight compared with the model group ([2]; mouse, in vivo): no significant changes
SMILES: CCC(=O)O[C@@H]1CC(=O)O[C@H](C)C/C=C/C=C/[C@H](O[C@H]2CC[C@H](N(C)C)[C@@H](C)O2)[C@H](C)C[C@H](CC=O)[C@H](O[C@@H]2O[C@H](C)[C@@H](O[C@H]3C[C@@](C)(O)[C@@H](OC(=O)CC(C)C)[C@H](C)O3)[C@H](N(C)C)[C@H]2O)[C@H]1OC [Isovaleryl spiramycin III, isovaleryl spiramycin III]
- Relative Tumor Proliferation Rate (T/C) [1, 4]: 35.63%
- tumor growth inhibition rate [1, 4]: 63.19%
- Relative Tumor Proliferation Rate (T/C) [1, 5]: 85.54%
- tumor growth inhibition rate [1, 5]: 19.22%
- tumor volume and relative tumor volume compared with the model group ([1]; HT-29, low, medium and high doses, P<0.05): significantly lower
- Relative Tumor Proliferation Rate (T/C) [1, 6]: 53.48%
- tumor growth inhibition rate [1, 6]: 41.35%
- Inhibition Rate (%) ([1]; 25 mg/kg): 19.22%
- Tumor Weight ([1]; 25 mg/kg): 1.90 ± 0.39 g
- Inhibition Rate (%) ([1]; 50 mg/kg): 41.35%
- Tumor Weight ([1]; 50 mg/kg): 1.38 ± 0.37 g
- Inhibition Rate (%) ([1]; 100 mg/kg): 63.19%
- Tumor Weight ([1]; 100 mg/kg): 0.87 ± 0.34 g
- Relative Tumor Proliferation Rate (T/C) ([1]; dose 25 mg/kg): 85.54%
- Relative Tumor Volume (RTV) ([1]; dose 25 mg/kg): 12.32 ± 4.51
- Tumor Volume (mm3) (d 1) ([1]; dose 25 mg/kg): 154.49 ± 33.07 mm3
- Tumor Volume (mm3) (d30) ([1]; dose 25 mg/kg): 1803.16 ± 368.50 mm3
- Relative Tumor Proliferation Rate (T/C) ([1]; dose 50 mg/kg): 53.48%
- Relative Tumor Volume (RTV) ([1]; dose 50 mg/kg): 7.70 ± 1.65
- Tumor Volume (mm3) (d 1) ([1]; dose 50 mg/kg): 161.76 ± 30.69 mm3
- Tumor Volume (mm3) (d30) ([1]; dose 50 mg/kg): 1252.64 ± 404.06 mm3
- Relative Tumor Proliferation Rate (T/C) ([1]; dose 100 mg/kg): 35.63%
- Relative Tumor Volume (RTV) ([1]; dose 100 mg/kg): 5.13 ± 1.13
- Tumor Volume (mm3) (d 1) ([1]; dose 100 mg/kg): 160.38 ± 38.86 mm3
- Tumor Volume (mm3) (d30) ([1]; dose 100 mg/kg): 826.76 ± 259.70 mm3
- Body Weight (g) (d1) ([1]; mouse, in vivo, 25 mg/kg): 21.31 ± 1.23 g
- Body Weight (g) (d30) ([1]; mouse, in vivo, 25 mg/kg): 21.19 ± 1.52 g
- Body Weight (g) (d1) ([1]; mouse, in vivo, 50 mg/kg): 21.22 ± 1.24 g
- Body Weight (g) (d30) ([1]; mouse, in vivo, 50 mg/kg): 21.00 ± 0.98 g
- Body Weight (g) (d1) ([1]; mouse, in vivo, 100 mg/kg): 21.34 ± 1.78 g
- Body Weight (g) (d30) ([1]; mouse, in vivo, 100 mg/kg): 21.09 ± 1.43 g
- Relative Tumor Proliferation Rate (T/C) [2, 7]: 39.39%
- tumor growth inhibition rate [2, 7]: 61.30%
- Relative Tumor Proliferation Rate (T/C) [2, 8]: 80.34%
- tumor growth inhibition rate [2, 8]: 21.00%
- tumor volume and relative tumor volume compared with the model group ([2]; T-24, low, medium and high doses, P<0.05): significantly lower
- Relative Tumor Proliferation Rate (T/C) [2, 9]: 62.35%
- tumor growth inhibition rate [2, 9]: 44.84%
- Inhibition Rate (%) ([2]; dose 25 mg/kg): 21.00%
- Relative Tumor Proliferation Rate (T/C) ([2]; dose 25 mg/kg): 80.34%
- Relative Tumor Volume (RTV) ([2]; dose 25 mg/kg): 10.61 ± 2.24
- Tumor Weight ([2]; dose 25 mg/kg): 1.48 ± 0.43 g
- Tumor Volume (mm3) (d 1) ([2]; dose 25 mg/kg): 135.55 ± 18.08 mm3
- Tumor Volume (mm3) (d30) ([2]; dose 25 mg/kg): 1427.95 ± 311.97 mm3
- Inhibition Rate (%) ([2]; dose 50 mg/kg): 44.84%
- Relative Tumor Proliferation Rate (T/C) ([2]; dose 50 mg/kg): 62.35%
- Relative Tumor Volume (RTV) ([2]; dose 50 mg/kg): 8.24 ± 0.38
- Tumor Weight ([2]; dose 50 mg/kg): 1.03 ± 0.42 g
- Tumor Volume (mm3) (d 1) ([2]; dose 50 mg/kg): 136.32 ± 15.54 mm3
- Tumor Volume (mm3) (d30) ([2]; dose 50 mg/kg): 1123.28 ± 140.84 mm3
- Inhibition Rate (%) ([2]; dose 100 mg/kg): 61.30%
- Relative Tumor Proliferation Rate (T/C) ([2]; dose 100 mg/kg): 39.39%
- Relative Tumor Volume (RTV) ([2]; dose 100 mg/kg): 5.20 ± 0.71
- Tumor Weight ([2]; dose 100 mg/kg): 0.73 ± 0.20 g
- Tumor Volume (mm3) (d 1) ([2]; dose 100 mg/kg): 134.53 ± 20.46 mm3
- Tumor Volume (mm3) (d30) ([2]; dose 100 mg/kg): 697.48 ± 130.89 mm3
- Body Weight (g) (d1) ([2]; mouse, in vivo, 25 mg/kg): 19.57 ± 0.52 g
- Body Weight (g) (d30) ([2]; mouse, in vivo, 25 mg/kg): 25.72 ± 1.53 g
- Body Weight (g) (d1) ([2]; mouse, in vivo, 50 mg/kg): 19.61 ± 0.44 g
- Body Weight (g) (d30) ([2]; mouse, in vivo, 50 mg/kg): 26.47 ± 0.52 g
- Body Weight (g) (d1) ([2]; mouse, in vivo, 100 mg/kg): 19.90 ± 0.58 g
- Body Weight (g) (d30) ([2]; mouse, in vivo, 100 mg/kg): 25.05 ± 0.93 g
- NK Cell Activity ([3]; 13 mg/kg): 48.9 ± 6.6%
- NK Cell Activity ([3]; 26 mg/kg): 46.0 ± 11.8%
- NK Cell Activity ([3]; 52 mg/kg): 49.8 ± 6.2%
- NK cell activity compared with the control group ([3]; 13, 26 and 52 mg/kg, P<0.01): significantly increase
